In a melting point compilation (Tetko et al.; mined from patent text by program, amines drawn as free bases though some values may be those of a salt):

| SMILES | melting point [°C] |
| --- | --- |
| COc1cn(C(c2ccccc2)c2ccccc2)c(=O)o1 | 125 to 127 |
| OC(c1ccc(F)cc1)c1cccnc1 (configuration not stated) | 45 to 47 |
| COc1ccc(COC/C(=C/c2ccc(C(=O)O)cc2)Cn2ccnc2)cc1 | 120 to 122 |
| OCCC#Cc1ncccn1 | 58 to 64 |
| COc1cc2c(cc1Br)CC(C)N(C(=O)C1CC1)N=C2c1ccc([N+](=O)[O-])cc1 (configuration not stated) | 194 to 196 |
| FC(F)(F)c1cccc2c1[nH]c1c2ccc2cc[nH]c21 | > 250 |
| CC(C)(C)C1OC1C(O)C1CCCCC1 (configuration not stated) | 38 to 48 |
| CCCCCC(CC(=O)Nc1cc(CCC(=O)O)ccc1C(C)(C)C)c1c(OC)cccc1OC (configuration not stated) | 52 to 53 |
| CS(=O)(=O)c1ccc(-n2cncc2-c2ccc(OC(F)(F)F)cc2)cc1 | 141 to 142 |
| O=C(c1ccccc1)c1[nH]c2cc(Cl)ccc2c1NC(=O)N1CCOCC1 | 168 to 170 |
| CCCCCCCCCCCCC(OC)C1=CC(=O)OC1O (configuration not stated) | 53 to 54 |
| CCc1cc(C)c(F)c(CC)c1-c1c(O)c(C)nn(C)c1=O | 193 to 195 |
| CC(C)(C)OC(=O)NCOc1ccccc1C(=O)O | 141 to 144 |
| C#Cc1cn(C2CC(O)C(CO)O2)c(=O)[nH]c1=O (configuration not stated) | 175 |
| CCOC(C)O[C@H]1C(=O)N(C(=O)OCc2ccccc2)[C@H]1c1ccccc1 (some centres not stated) | 58 to 60 |
| c1ccc2c(c1)C[C@H]1CSC(=Nc3cc[nH]n3)N1C2 | 161 |
| CCCCCCCCCCCCCCCCOc1ccc(OCC(=O)NCCc2ccccn2)cc1 | 74 to 75 |
| CCCCn1c(=O)c2nn(S(=O)(=O)c3cc(Cl)c(Cl)s3)cc2n(CCCC)c1=O | 163 to 166 |
| CSc1ccc(-c2nc(S)[nH]c2-c2ccc(SC)cc2)cc1 | 280 |
| CCOP(=O)(Cc1ccc(NC(=O)/C=C/c2cn[nH]c2-c2ccc(F)cc2)cc1)OCC | 181 to 182 |
| O=c1c(Cc2ccccc2)c2n(c(=O)n1CCCCSc1cccc3nccn13)CCCS2(=O)=O | 53 to 54 |
| CCOC(Cc1ccc(OCCn2c(=O)sc3cc(C(=O)c4ccccc4)ccc32)cc1)C(=O)OC (configuration not stated) | 118 to 119 |
| CCOC(=O)CCCCCCc1ccc2ccccc2c1O | 41 to 42 |
| CCNC(=O)c1cc(NS(=O)(=O)c2ccc(C(F)(F)F)cn2)ccc1Oc1cncc(Cl)c1 | 147 to 148 |
| Cn1cnc(COc2nn3c(-c4ccccc4F)nnc3cc2C2CCC2)c1 | 176 |
| CC(=O)c1cnc(N)o1 | 214 to 215 |

| SMILES | melting point [°C] |
| --- | --- |
| CCn1cc(-c2cccc(C(F)(F)F)c2)c(=O)n1-c1ccc(F)cc1 | 92 |
| O=C(Nc1ccc(-n2nccn2)c(F)c1)OCc1ccccc1 | 99.5 to 101 |
| COC(=O)C=C(C)NCc1ccccc1 | 36 to 37.5 |
| CCn1cc2c(n1)c(=O)[nH]c1ccccc12 | > 250 |
| CCOC(=O)c1c(CC(C)C)nc2c(C(F)(F)F)cccc2c1O | 100 |
| CCCn1c(=O)c2[nH]c(-c3ccc4c(c3)OCCO4)nc2n(Cc2ccccc2)c1=O | 290 |
| O=C(CCCCCCOc1ccccc1)c1nnc(CO)o1 | 83 to 85 |
| ClCCCOc1cc(Cl)c(OCCCCl)cc1Cl | 162 |
| C=CCOC(=O)c1ccc(N=C(SC)c2ccc(OC)c(C34CC5CC(CC(C5)C3)C4)c2)cc1 | 50 to 53 |
| CC(=O)Oc1ccc(Nc2nc(N)ncc2Oc2ccc(Cl)cc2)cc1 | 132 to 133 |
| CSc1sc(C(N)=O)c2c1-c1nc(C)sc1CC2 | 269 to 270 |
| CC(C)COc1nc(N)c2ncn(C3C=CCCC3)c2n1 (configuration not stated) | 132 to 135 |
| COc1ccc(CS(=O)(=O)C(C)(Cc2ccccc2)C(=O)O)cc1 (configuration not stated) | 58 to 59 |
| C#Cc1ccc(-c2[nH]c(=O)c3cc(OC)ccc3c2[N+](=O)[O-])cc1 | 246 to 248 |
| COC(=O)c1ccc(C=C2CCn3c2nc2cc([N+](=O)[O-])ccc2c3=O)cc1 | 264 to 266 |
| Clc1ccc2cccc(-c3cccc4ccccc34)c2n1 | 133 to 135 |
| COC(=O)c1cccc(-c2cccc(CC(=O)O)c2)c1 | 84.5 to 85.5 |
| O=c1c2ccc(Cl)cc2n(Cc2ccccc2)n2c(Br)ccc12 | 148 to 149 |
| Cc1ccc(N(c2ccccc2)c2ccc(-c3ccc(-c4ccc(N(c5ccccc5)c5ccc(C)cc5)cc4)cc3)cc2)cc1 | 167 to 168 |
| Cn1c(C(F)(F)F)cc(=O)n(-c2cc(OCCOC=C(Cl)Cl)c(Cl)cc2F)c1=O | 97 to 99 |
| CC(C)(C)c1ccc(CC[C@H](O)CCCC2CCCCC2)cc1NC(=O)CC1c2ccccc2Oc2ccccc21 | 128 to 129 |
| O=C1C=C(c2ccc(Cl)c(S(=O)(=O)N3CCCC3)c2)OC1 | 108 to 111 |
| CC1(C)Sc2ccccc2C(Cl)=C1C=O | 49 to 52 |
| CC(C)(C)OC(=O)N1CCC(OCc2ccccc2)C1CC(=O)Cn1cnc2ccncc2c1=O (configuration not stated) | 221 |
| COC(C)(OC)c1nn(-c2c(Cl)cc(C(F)(F)F)cc2Cl)c(N)c1SC | 149 |
| CCOc1ccc(C(=O)Nc2ccccc2)cc1NC(=S)Nc1cc(Cl)cc(Cl)c1 | 201 to 202 |

| SMILES | melting point [°C] |
| --- | --- |
| CC(C)NCC(O)COc1ccc(-c2oc3ccccc3c2C(=O)c2ccccc2)cc1 (configuration not stated) | 53 to 59 |
| CCOP(=O)(/C=C/c1cn(CCO)nc1OCc1ccc(OCc2nc(-c3ccco3)oc2C)c(OC)c1)OCC | 95 to 96 |
| Cc1ccc(C(=O)OC2CCN(Cc3ccccc3[N+](=O)[O-])CC2)cc1 | 86 to 87 |
| COc1ccc(OC)c(-c2cccc(-n3cnc(-c4nc(C)no4)c3)c2)c1 | 127 to 129 |
| CSc1cncc(Oc2ccc(Cl)c(Cl)c2)c1 | 55 |
| COC(=O)C1=CN(c2ccc(O)cc2)C(C2CC=CCC2)CC1=O (configuration not stated) | 155 to 157 |
| COC(=O)c1cccc2c(Br)c(OC)ccc12 | 119 |
| COc1ccc(C2=NN(CCCCCCNCC(O)c3ccc(N)c(C#N)c3)C(=O)C3CCCCC23)cc1OC (configuration not stated) | 101 to 103 |
| COC(=O)c1ccc2c(c1)Sc1ccccc1NC2 | 149 to 150 |
| COC=C(C(=O)OC)c1ccccc1Oc1ccn(-c2ccc(Cl)cc2)n1 | 109 to 110 |
| O=C(N[C@@H]1CONC1=O)OCc1ccccc1 | 135 to 136 |
| O=C(O)c1ccc(F)cc1NS(=O)(=O)c1ccccc1 | 158 to 159 |
| O=C1N(Cc2c[nH]c3ccccc23)CCCC12CCN(c1cnc3ccccc3n1)CC2 | 109 to 111 |
| CC(C)(c1ccc(OC#N)cc1)c1ccc(OC#N)cc1 | 82 |
| CCCOc1cc(OC)cc(O)c1C(=O)C=Cc1ccc(OC)cc1 | 117 |
| NC(=O)c1c(N2CCN(Cc3ccccc3)CC2)nn2c(-c3ccncc3)ccnc12 | 205 to 206 |
| CCC(C)Cc1ccc(OC(=O)c2ccc(O)cc2Cl)cc1 (single isomer, unassigned; (+)) | 142 |
| COc1ccc(N(CCC(=O)NCC(=O)O)C(=O)c2ccc(Cl)cc2)cc1 | 185 to 187 |
| O=C(O)CCc1cc(CCN2CCC(C(=O)c3ccc(F)cc3)CC2)cc2c1CCC(NS(=O)(=O)c1ccc(Cl)cc1)C2 (configuration not stated) | 210 |
| COc1ccc(Br)c(OC)c1-c1ccc(C[C@H](NC(=O)c2c(Cl)cccc2Cl)C(=O)O)cc1 | 205 to 206 |
| COc1cc(C=O)ccc1NC(C)=O | 145 |
| NC(=O)c1cc2cc(N3CCN(Cc4ccccc4)CC3)ccc2o1 | 206 to 208 |
| COC(=N)Nc1nc(OC)cc(OC)n1 | 91 to 95 |
| CCCCCCCCCCCCC(C)COc1ccc(C(C)=O)o1 (configuration not stated) | 45 to 47 |
| Cn1nc(C(F)(F)F)n(-c2ccc(N)cc2Cl)c1=S | 145 to 147 |
| N#CSc1ccc(-c2nc3ccc(N)c(SC#N)c3nc2-c2ccco2)o1 | 185 to 187 |

| SMILES | melting point [°C] |
| --- | --- |
| OCCOc1ccc(-c2nc(-c3ccccc3)nc(-c3ccccc3)n2)c(O)c1 | 195 |
| COc1ccc2nc(Oc3c(Cl)cc(NS(=O)(=O)c4ccc(C(F)(F)F)cc4Cl)cc3Cl)sc2c1 | 164 to 165 |
| O=C(Nc1ccncc1)c1ccc(-n2nc(C(F)(F)F)cc2C(F)(F)F)cc1 | 234 to 235 |
| CC1=Cc2cc(F)c(F)cc2C1 | 86 to 90 |
| CC(=NO)c1noc2ccccc12 | 193 to 195 |
| COc1cc2ccccc2cc1N(C)C(=O)N1CCN(c2cc(C)cc(C)c2)CC1 | 134 to 136 |
| N#CC(S)(CCC(=O)O)C1=NCCc2ccccc21 (configuration not stated) | 149 to 150 |
| Cc1cccc(Nc2ccccc2C(=O)N(C)O)c1C | 70 to 71 |
| CCOC(=O)c1oc(-c2ccc(Cl)cc2)cc(=O)c1Br | 146 to 149 |
| O=c1[nH]c2ccccc2n1CCN1CCC(C(c2ccccc2)c2ccccc2)CC1 | 195 to 196 |
| Cc1ccc(C2CCC(=O)Nc3ccccc32)cc1 (configuration not stated) | 178 to 181 |
| CSc1ccc(CN(C)CCOc2ccc(NC(=O)c3cccc4c(=O)c5ccccc5[nH]c34)cc2)cc1 | 150 |
| Cc1cc2cc(Nc3ccnc4cc(-c5ccc(C=O)cc5)sc34)ccc2[nH]1 | 223 to 240 |
| Cc1cc([N+](=O)[O-])c(O)c([N+](=O)[O-])c1C | 120 to 122 |
| CCCCCCCNC(=S)N(C)c1cccc(-c2ccc(CCC(=O)O)cc2)c1 | 95 to 96 |
| CCCCn1c(C)c(C2(c3c(C)n(CCCC)c4ccccc34)NNC(=O)c3ccccc32)c2ccccc21 | 206 |
| Fc1ccc(CSc2nc3cnccc3[nH]2)cc1F | 147 to 149 |
| CCOC(=O)c1cccc(Cn2cnc3ccncc32)c1 | 102 to 104 |
| Cc1ccc2c(c1)cc(C(=O)O)n2CC(=O)OC(C)(C)C | 174 to 176 |
| COc1cc(-n2c(I)nnc2I)ccc1C | 176 |
| CC(C)(C#N)NC(=O)c1ccccc1Cl | 59 to 65 |
| Cc1ccc(C2=NNC(=O)CC2)cc1OCC1CO1 (configuration not stated) | 128 to 132 |
| COC(=O)c1nc(Cl)sc1-c1ccccc1 | 63 to 65 |
| CSc1ccc(C=C2c3ccc(F)cc3CC2C)cc1 (configuration not stated) | 67 to 70 |
